Laboratory results as given in patent US7094752B2 (Chiron Corporation, priority 1997, dated 2006).
Entries after “also recorded” stand apart in the source; their conditions may differ. Read-outs that look alike come from different tables or passages of the source. Ends that are not written are not given here.

Experiments:
[1] = target: T1, uPA1–48:uPAR complexes binding to vitronectin (Homo sapiens, UniProt Q03405); assay: Vitronectin binding assay (ELISA); conditions: 20 nM biotinylated suPAR, 20 nM uPA1–48
T1 construct: sUPAR, soluble truncated form of the urokinase receptor; made in house; host or cells: suPAR: baculovirus-infected Sf9 cells; uPA1-48: recombinant yeast; vitronectin: purified from human plasma
T1 sequence (Q03405 23-305 limits assumed, one chain of several): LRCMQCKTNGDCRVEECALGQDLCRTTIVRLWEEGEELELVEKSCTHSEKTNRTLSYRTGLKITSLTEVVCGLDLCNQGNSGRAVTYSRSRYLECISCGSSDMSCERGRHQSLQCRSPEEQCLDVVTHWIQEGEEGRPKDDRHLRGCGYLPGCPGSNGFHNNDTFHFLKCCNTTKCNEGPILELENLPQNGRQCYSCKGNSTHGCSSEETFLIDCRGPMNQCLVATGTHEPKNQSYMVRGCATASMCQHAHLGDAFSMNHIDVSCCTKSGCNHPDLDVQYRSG
Protocol: Vitronectin was purified from human plasma by the method of Yatohgo et al, Cello Struct.and Funct. 13: 281–292 (1988). Purified vitronectin was diluted to 20 μg/ml in PBS containing 1 mM CaCl2 and 0.5 mM MgCl2, dispensed at 50 μl/well into Immulon II wells (Dynatech, Chantilly, Va.), incubated overnight at 4° C. and washed with PBS/BSA. Biotinylated sUPAR was diluted to 20 nM in PBS/BSA, incubated with or without test ligand for 30 minutes at room temperature (22° C.), dispensed at 100 μl/well and incubated for 90 minutes. Wells were then washed and horseradish peroxidase (HRP)-conjugated streptavidin was added at 0.4 μg/ml in PBS/2% BSA for 1 hour followed by washing and addition of 100 μl/well TMB substrate. The color development was stopped with 100 μl of 0.8N H2SO4 and the absorbance at 450 nm measured in a 96 well plate reader (Dynatech, Chantilly, Va.). Antagonistic effects of test ligands were measured as described above except the ligands were incubated with 20 nM biotinylated suPAR in the presence of 20 nM uPA1–48.
In order to analyze the effects of the various peptide ligands on the uPAR:vitronectin interaction, we developed an in vitro ELISA based assay for this interaction, in which biotinylated suPAR and uPA1–48 bind to immobilized, urea purified vitronectin, and the bound sUPAR is detected with HRP conjugated streptavidin. Under the conditions of the assay binding of biotinylated uPAR to vitronectin is strictly dependent on uPA1–48, as shown in FIG. 1.

[2] = target: T2, suPAR (Homo sapiens, UniProt Q03405); assay: suPAR binding assay (competition for uPA1–48 binding); conditions: synthetic peptide
T2 construct: sUPAR, soluble truncated form of the urokinase receptor; made in house; host or cells: baculovirus-infected Sf9 insect cells
T2 sequence (Q03405 23-305 limits assumed): as the sequence (Q03405 23-305 limits assumed, one chain of several) above
Protocol: Twenty-eight independent bacteriophage were isolated and the random peptide encoding DNA segments sequenced. […] This is in contrast to previous results of affinity selection on uPAR alone, where the majority of selected bacteriophage bound with substantial yield as described in Goodson et al, Proc.Natl.Acad.Sci. USA 91: 7129–7133 (1994). The yields of these four bacteriophage were determined on suPAR in the presence and absence of uPA1–48. In addition, the encoded peptides were synthesized and tested as competitors in a suPAR binding assay as described in Stratton-Thomas et al, Prot.Eng. 8: 463–470 (1995), and Kaufman et al Anal.Biochem. 211: 261–266 (1993).

[3] = target: T3, uPAR (Homo sapiens, UniProt Q03405); assay: IC 50 (uM)^2
T3 construct: sUPAR, soluble truncated form of the urokinase receptor; made in house; host or cells: baculovirus-infected Sf9 insect cells
T3 sequence (Q03405 whole entry, looked up, the tested form may be a part): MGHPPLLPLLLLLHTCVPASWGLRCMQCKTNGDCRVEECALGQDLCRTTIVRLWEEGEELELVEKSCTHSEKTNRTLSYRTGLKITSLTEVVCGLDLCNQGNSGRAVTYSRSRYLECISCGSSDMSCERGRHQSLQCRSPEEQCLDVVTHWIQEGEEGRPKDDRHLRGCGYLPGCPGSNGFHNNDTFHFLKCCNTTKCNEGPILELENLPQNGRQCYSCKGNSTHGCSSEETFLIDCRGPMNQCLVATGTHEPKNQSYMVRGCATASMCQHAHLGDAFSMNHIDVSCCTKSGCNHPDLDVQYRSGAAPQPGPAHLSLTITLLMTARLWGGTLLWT
Protocol: Table printed on a drawing sheet, FIG. 6
Head of the field: IC 50 (uM)^2
The patent's description of the figure: FIG 6: Table. The table of FIG 6 depicts the sequences (SEQ ID NOS:12–17), phage yields, and IC50s in uPAR binding assays for selected phage peptides. Legend: 1. Individual phage were incubated with biotinylated suPAR with and without 10 μM uPA1–48 on streptavidin coated wells as described herein. The background yields of all phage without SuPAR in the wells ranged from 0.002–0.025%. Errors in yield are in the range 50%. 2. Apparent inhibition constant of the synthetic peptide in the uPAR receptor binding assay; errors are in the range of 20%. 3. NT=not determined because of peptide insolubility. 4. Clone 20 and 13–32 peptides were as described previously.
First copying reader's note: The head is printed shifted: 'Phage Yield' covers the -1-48 and +1-48 columns and 'IC 50 (uM)' belongs to the last column; the raised marks 1-4 refer to a legend that is not printed on the sheet.
Where the first naming reader finds the target: description_of_the_figure: IC50s in uPAR binding assays for selected phage peptides

[4] = target: T4, sUPAR domain 2–3 (D23) (Homo sapiens, UniProt Q03405); assay: Bacteriophage binding to sUPAR domain 2/3; conditions: phage-displayed peptide
T4 construct: domains 2 and 3 (amino acids 93–313); made in house; host or cells: baculovirus infected Sf9 insect cells
T4 sequence (Q03405 115-335): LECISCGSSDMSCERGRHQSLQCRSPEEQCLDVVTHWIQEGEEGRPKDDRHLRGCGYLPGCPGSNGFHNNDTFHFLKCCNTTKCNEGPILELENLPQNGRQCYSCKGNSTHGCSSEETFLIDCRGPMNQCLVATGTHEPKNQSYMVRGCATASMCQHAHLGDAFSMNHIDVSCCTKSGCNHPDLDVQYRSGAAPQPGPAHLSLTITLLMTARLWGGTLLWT
Protocol: FIG. 5. Bacteriophage binding to sUPAR domain 2/3. Phage were added to wells containing sUPAR domain 2/3 immobilized by its epitope tag via protein G and monoclonal antibody to the epitope tag. Wells containing protein G and antibody but no domain 2/3 were included to determine nonspecific phage binding. Urea-eluted phage and the input stocks were titered by plaque formation assay. Results were single point determinations calculated as a percent of the input titer and were repeated in three separate experiments.
It was also shown by the inventors that bacteriophage bound to sUPAR domain 2–3fragment. Protein G, 100μl, 1 mg/ml in 50 mM Na2CO3, pH9.6, was added to MaxiSorp wells, incubated overnight at 4° C. and then washed with PBS/BSA. Fifty μl of monoclonal antibody to the epitope tag EYMPME (SEQ ID NO: 18) was added at 1 mg/ml in PBS/BSA and incubated for 2 hours at room temperature. The wells were washed, recombinant sUPAR domain 2–3 (1.7 μM in PBS/BSA) was added and incubated for 1.5 hours at room temperature. The wells were washed prior to the addition of bacteriophage (approximately 10^8 pfu), and then treated as described in the previous section for binding to suPAR.

[5] = tested on: uPAR mediated adhesion of stimulated U937 cells; assay: Adhesion of stimulated U937 cells to vitronectin; type: cell-based
From the text: Previous results had shown that vitronectin binding by uPAR correlated with cell adhesion of stimulated U937 cells as described in Wei et al, J. Biol. Chem. 269: 32380–32388 (1994). It was found also that clone 7 peptide could block uPAR mediated adhesion of these cells, whereas the scrambled version of the same peptide had no effect.

[6] = target: T2, suPAR; assay: SuPAR:1-anilino-8-napthalenesulfonate (ANS) fluorescence; type: binding; conditions: 2 μM sUPAR, 10 μM ANS, 0 to 20 μM competitor
Protocol: Determination of the effect of various peptide ligands on sUPAR/ANS fluorescence was performed following a procedure similar to that of Ploug et al, Biochem. 33: 8991–8997 (1994). Fluorescence emission spectra of sUPAR/ANS solutions with or without competitors were obtained using an Hitachi F-4500 fluorescence spectrophotometer with an excitation wavelength of 386 nm, 5-nm band-pass excitation and emission slits, and a 10 mm path length quartz cuvette. The emission spectra from 400 to 600 nm were recorded. For competition measurements, dilutions of a stock sUPAR/ANS solution were made to give individual 0.5 ml aliquots with a final concentration of 2 μM sUPAR, 10 μM ANS, and 0 to 20 μM competitor in PBS containing 10% DMSO. Fluorescence measurements were made after a one hour incubation at 25° C.

[7] = tested on: nontransfected 293 cells; assay: Adhesion of nontransfected 293 cells to fibronectin or collagen; type: cell-based; conditions: recombinant soluble uPAR added, dose dependent
From the text: To explore whether uPAR binds to integrins, nontransfected 293 cells were allowed to adhere to fibronectin or collagen in the presence of recombinant soluble uPAR (suPAR).

[8] = target: T5, uPA1–48:suPAR complex (Homo sapiens, UniProt Q03405); assay: Bacteriophage 7 and 18 binding to uPA1–48:suPAR complex in presence of vitronectin; conditions: clone 7 and 18 bacteriophage
T5 construct: sUPAR, soluble truncated form of the urokinase receptor; made in house; host or cells: suPAR: baculovirus-infected Sf9 cells; uPA1-48: recombinant yeast
T5 sequence (Q03405 23-305, other chains not shown): as the sequence (Q03405 23-305 limits assumed, one chain of several) above
Protocol: The ability of the various bacteriophage derived peptides to affect binding of uPA1–48:uPAR complexes to vitronectin was assessed in the ELISA assay. Two classes of peptides were effective antagonists in this assay. […] None of the peptides when tested alone increased the binding of biotinylated suPAR to vitronectin. […] In order to test whether the clone 7 and 18 peptides bound directly at the vitronectin binding site on uPAR, and inhibited vitronectin binding by uPAR:uPA1–48 by direct competition for that site, the inventors examined the effects of vitronectin on the binding of these bacteriophage. Vitronectin reduced bacteriophage binding to the uPA1–48:suPAR complex by 5–10 fold, consistent with the hypothesis that these peptides mimic vitronectin as a uPAR ligand.

Row | Substance | effect on binding of uPA1–48:uPAR complexes to vitronectin [1] | competition for uPA1–48 binding to sUPAR / receptor binding activity (in words) [2] | IC50 [3] [µM] | bacteriophage binding to immobilized D23 versus sUPAR [4] | further results
1 | AE PMPHSLNFSQYAWYT [analog of clone 20 peptide, reference compound] | did not affect binding to vitronectin | greatly reduced receptor binding activity | – | – | –
2 | AELDLSTFYDIQYLLRT-NH2 [peptide 18] | blocks binding of complexes to vitronectin | greatly reduced competition for uPA1–48 binding | 10 | intermediate degree of binding to D23 | effect on binding of uPA1–48:uPAR complexes to vitronectin ([1]; listed as clone 18): inhibit complex binding
3 | AEPVYQYELDSYLRSYY-NH2 [peptide 7] | inhibits complex binding to vitronectin | greatly reduced competition for uPA1–48 binding | 10 | intermediate degree of binding to D23 | block of uPAR mediated adhesion of stimulated U937 cells to vitronectin ([5]; listed as clone 7): effective blocker; block of uPAR mediated adhesion of stimulated U937 cells to vitronectin ([5]; listed as clone 7 peptide): could block; reduced binding to D23 versus suPAR [4]: about 50 fold; effect on binding of uPA1–48:uPAR complexes to vitronectin ([1]; listed as clone 7): inhibit complex binding; effect on ANS fluorescence enhancement in the presence of uPAR [6]: reduced fluorescence in a dose dependent manner
4 | CLNGGTAVSNKYFSNLHWC [13-32^4] | – | – | 0.25 | – | –
5 | H-AEPMPHSLNFSQYLWYT-NH2 [20^4] | – | – | 0.01 | – | –
6 | H-AESTYHHLSLGYMYTLN-NH2 [compound 25] | – | – | > 10 | – | –
7 | VEYRDAYSYPQYLSYLE [scrambled version of clone 7, same amino acids as clone 7, but in a different order, reference compound] | did not; also recorded: does not | – | – | – | block of uPAR mediated adhesion of stimulated U937 cells to vitronectin [5]: no effect
8 | suPAR: soluble recombinant human urokinase receptor from baculovirus-infected Sf9 insect cells | – | – | – | – | adhesion of nontransfected 293 cells to fibronectin and collagen [7]: inhibited adhesion
9 | uPA13–32: amino acids 13–32 of human urokinase with Cys19 converted to Ala (CLNGGTAVSNKYFSNIHWCN) [reference compound] | reduce binding | compete directly for uPA1–48 binding | – | bind signficantly only to intact sUPAR | –
10 | vitronectin: vitronectin purified from human plasma | blocked | – | – | – | reduction of bacteriophage binding to the uPA1–48:suPAR complex [8]: 5–10 fold
